# Key:
# [1] = type: physicochemical; conditions: pH 5.5
# Method: One gram of the test compound was measured into a beaker. […] The procedure was continued until complete dissolution was achieved. […] The procedure was performed for each compound.
# in vivo = conditions: dog, po, 150 mg
# Method: Tablets were manufactured containing either pure zoledronic acid or the disodium salt of zoledronic acid (disodium zoledronate tetrahydrate). Both types of tablets contained 50 mg of zoledronic acid equivalent per tablet. Identical excipients were used in both types of tablets, with amounts adjusted to account for the difference in molecular weights between the acid and the disodium salt.
# Beagle dogs were orally administered tablets containing 150 mg zoledronic acid equivalent either in the form of disodium zoledronate (Group 1) or pure zoledronic acid (Group 2). Each animal was given three 50 mg equivalent tablets (150 mg total), which were administered together. The animal's oral cavity was wetted with water before placing the tablets on the back of the animal's tongue. Animals were fasted before and after dosing. Animals were 6 to 9 months of age and weighed 6 to 10 kg on the day of dosing. There were three dogs per group.
# Serial blood samples were collected from each animal by venipuncture of the jugular vein at various points after dosing for measurement of plasma concentrations of zoledronic acid. Blood samples were collected into chilled tubes containing K2EDTA as the anticoagulant. Samples were then centrifuged at approximately 3000 rpm at +4° C. for 10 minutes for plasma derivation. Plasma concentrations of zoledronic acid were measured using an LC/MS/MS method.
structure (smiles),measurement,setting,value
O.O.O.O.O=P([O-])(O)C(O)(Cn1ccnc1)P(=O)([O-])O.[Na+].[Na+] [disodium zoledronate tetrahydrate],aqueous solubility relative to zoledronic acid,[1],approximately 50 times
same,average AUC0-∞,in vivo,4073 ng·h/mL

# — patent publication US20240108641A1, “COMPOSITIONS FOR ORAL ADMINISTRATION OF ZOLEDRONIC ACID OR RELATED COMPOUNDS FOR TREATING DISEASE” (ANTECIP BIOVENTURES II LLC, priority 2012, published 2024)
